Laboratory results published in PubChem BioAssay (NCI).
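96-well plates; 48 h exposure; 5 concentrations. Endpoints by linear interpolation between flanking doses. Not reached: highest tested concentration assigned. The concentration for full growth arrest is given as TGI.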

Legend:
Experiment in all cases: NCI tumour cell line growth inhibition, 48 h
[1] = tested on: BT-549 breast
[2] = tested on: OVCAR-5 ovarian
[3] = tested on: NCI-H226 lung
[4] = tested on: ACHN renal
[5] = tested on: NCI/ADR-RES ovarian
[6] = tested on: RXF 393 renal
[7] = tested on: HOP-92 NSCLC
[8] = tested on: T-47D breast
[9] = tested on: COLO 205 colon
[10] = tested on: SF-539 CNS

Question: For `N=C(N)SCc1ccc2c(c1)Sc1ccccc1O2`, which TGI [1] is on record?
Answer: Its TGI is 16.1 µM.

Question: What about the TGI [2] of the same compound?
Answer: The TGI was 25.3 µM.

Question: And the TGI [3]?
Answer: Its TGI is 31.1 µM.

Question: And the TGI [4]?
Answer: Its TGI is 16.9 µM.

Question: What about the TGI [5] of the same compound?
Answer: The TGI was 34.6 µM.

Question: What about the TGI [6] of the same compound?
Answer: The TGI was 14 µM.

Question: And the TGI [7]?
Answer: Its TGI is 26.8 µM.

Question: And the TGI [8]?
Answer: The TGI was 43 µM.

Question: And the TGI [9]?
Answer: Its TGI is 17.8 µM.

Question: What about the TGI [10] of the same compound?
Answer: The TGI was 7.79 µM.

Question: What does the source list for `CCCCC(C(=O)NCCNC(=O)CCC(=O)N(C)O)C(=O)NCCNC(=O)CCC(=O)N(C)O`?
Answer: TGI [1]: > 100 µM; TGI [2]: > 100 µM; TGI [3]: > 100 µM; TGI [4]: > 100 µM; TGI [5]: > 100 µM; TGI [6]: > 100 µM; TGI [7]: > 100 µM; TGI [8]: > 100 µM; TGI [9]: > 100 µM; TGI [10]: > 100 µM

Question: For `CN(C)c1ccc(C(=N/N=C2\C(=O)Nc3ccccc32)c2ccc(N(C)C)cc2)cc1`, which TGI [1] is on record?
Answer: Its TGI is 38.6 µM.

Question: What about the TGI [2] of the same compound?
Answer: Its TGI is > 54 µM.

Question: What about the TGI [3] of the same compound?
Answer: Its TGI is 43.3 µM.

Question: What about the TGI [4] of the same compound?
Answer: Its TGI is 40.8 µM.

Question: And the TGI [5]?
Answer: Its TGI is 3.59 µM.

Question: What about the TGI [6] of the same compound?
Answer: The TGI was 1.23 µM.

Question: What about the TGI [7] of the same compound?
Answer: The TGI was 51.2 µM.

Question: What about the TGI [8] of the same compound?
Answer: Its TGI is 35.5 µM.

Question: And the TGI [9]?
Answer: Its TGI is 3.34 µM.

Question: What about the TGI [10] of the same compound?
Answer: The TGI was 3.72 µM.

Question: How did the TGI [1] turn out when `Cc1cn(C2CC(O)C(CO)O2)c(=O)[nH]c1=O` (stereo not given) was run?
Answer: The TGI was > 5000 µM.

Question: And the TGI [2]?
Answer: Its TGI is > 5000 µM.

Question: And the TGI [3]?
Answer: The TGI was > 5000 µM.

Question: What about the TGI [4] of the same compound?
Answer: The TGI was > 5000 µM.

Question: And the TGI [5]?
Answer: Its TGI is > 5000 µM.

Question: And the TGI [6]?
Answer: Its TGI is > 5000 µM.

Question: And the TGI [7]?
Answer: Its TGI is > 4830 µM.

Question: What about the TGI [8] of the same compound?
Answer: The TGI was > 5000 µM.

Question: What about the TGI [9] of the same compound?
Answer: The TGI was > 5000 µM.

Question: And the TGI [10]?
Answer: The TGI was > 5000 µM.

Question: Which results are given for `CC(=N/N=C/c1ccccn1)/C(C)=N/N=C(C)/C(C)=N/N=C(C)/C(C)=N/N=C(C)/C(C)=N\N=C\c1ccccn1`?
Answer: TGI [1]: > 100 µM; TGI [2]: > 100 µM; TGI [3]: > 100 µM; TGI [4]: > 100 µM; TGI [5]: > 100 µM; TGI [6]: > 100 µM; TGI [7]: > 100 µM; TGI [8]: > 100 µM; TGI [9]: > 100 µM; TGI [10]: > 100 µM

Question: Which results are given for `CCOC(=O)c1cc2nc3ccccc3c(=O)n2c2ccccc12`?
Answer: TGI [1]: > 10 µM; TGI [2]: > 10 µM; TGI [3]: > 10 µM; TGI [4]: > 10 µM; TGI [5]: > 10 µM; TGI [6]: > 10 µM; TGI [7]: > 10 µM; TGI [8]: > 10 µM; TGI [9]: > 10 µM; TGI [10]: > 10 µM

Question: With `CN1CSC(=S)N(c2c3ccccc3nc3ccc(Br)cc23)C1` as the compound, how does the TGI [1] read?
Answer: The TGI was 32.2 µM.

Question: What about the TGI [2] of the same compound?
Answer: The TGI was 31.6 µM.

Question: What about the TGI [3] of the same compound?
Answer: Its TGI is 37 µM.

Question: What about the TGI [4] of the same compound?
Answer: Its TGI is 19.5 µM.

Question: What about the TGI [5] of the same compound?
Answer: The TGI was 30.9 µM.

Question: What about the TGI [6] of the same compound?
Answer: Its TGI is 24.7 µM.

Question: What about the TGI [7] of the same compound?
Answer: The TGI was 32.7 µM.

Question: What about the TGI [8] of the same compound?
Answer: The TGI was 38.3 µM.

Question: And the TGI [9]?
Answer: Its TGI is 20 µM.

Question: And the TGI [10]?
Answer: Its TGI is 25.7 µM.

Question: How did the TGI [1] turn out when `Cc1ccc(S(=O)(=O)N/N=C/C2(c3ccccc3)c3ccccc3-c3ccccc32)cc1` was run?
Answer: Its TGI is 27.7 µM.

Question: What about the TGI [2] of the same compound?
Answer: The TGI was 25.1 µM.

Question: And the TGI [3]?
Answer: The TGI was 34.1 µM.

Question: What about the TGI [4] of the same compound?
Answer: The TGI was 88.3 µM.

Question: And the TGI [5]?
Answer: Its TGI is 24.6 µM.

Question: And the TGI [6]?
Answer: Its TGI is 27.3 µM.

Question: What about the TGI [7] of the same compound?
Answer: The TGI was 25.5 µM.

Question: And the TGI [8]?
Answer: Its TGI is 44 µM.

Question: And the TGI [9]?
Answer: Its TGI is 13.8 µM.

Question: And the TGI [10]?
Answer: Its TGI is 30.9 µM.

Question: Which TGI [1] does the source give for `O=[N+]([O-])c1ccc(Oc2c(Cl)cc(S(=O)(=O)/N=C(\NO)Nc3ccc(Cl)cc3)cc2Cl)cc1` here?
Answer: The TGI was 25 µM.

Question: And the TGI [2]?
Answer: Its TGI is 25.8 µM.

Question: What about the TGI [3] of the same compound?
Answer: The TGI was 35.3 µM.

Question: What about the TGI [4] of the same compound?
Answer: The TGI was 23.8 µM.

Question: And the TGI [5]?
Answer: Its TGI is 32.2 µM.

Question: What about the TGI [6] of the same compound?
Answer: The TGI was 29.9 µM.

Question: And the TGI [7]?
Answer: The TGI was 11.1 µM.

Question: And the TGI [8]?
Answer: Its TGI is 34.3 µM.

Question: And the TGI [9]?
Answer: The TGI was 29.9 µM.

Question: And the TGI [10]?
Answer: Its TGI is 26.7 µM.

Question: `CC1=NN(c2cccc(Cl)c2)C2(C1=C/C=C/c1ccccc1)C(Cl)C(=O)N2c1nc2ccccc2s1` (stereo not given) was tested. Which TGI [1] did it give?
Answer: Its TGI is > 100 µM.

Question: And the TGI [2]?
Answer: The TGI was > 71.2 µM.

Question: And the TGI [3]?
Answer: Its TGI is > 100 µM.

Question: And the TGI [4]?
Answer: The TGI was > 42.3 µM.

Question: And the TGI [5]?
Answer: The TGI was > 100 µM.

Question: And the TGI [6]?
Answer: Its TGI is > 49 µM.

Question: What about the TGI [7] of the same compound?
Answer: The TGI was > 53.2 µM.

Question: What about the TGI [8] of the same compound?
Answer: The TGI was > 100 µM.

Question: And the TGI [9]?
Answer: The TGI was > 100 µM.

Question: What about the TGI [10] of the same compound?
Answer: The TGI was > 86.1 µM.

Question: For `CC1=C[C@@H]2Cc3nc4cc(Cl)ccc4c(N)c3[C@H](C1)C2`, which TGI [1] is on record?
Answer: The TGI was 31.7 µM.

Question: And the TGI [2]?
Answer: The TGI was 17.3 µM.

Question: And the TGI [3]?
Answer: The TGI was 32.5 µM.

Question: What about the TGI [4] of the same compound?
Answer: The TGI was 23.1 µM.

Question: What about the TGI [5] of the same compound?
Answer: The TGI was 25 µM.

Question: What about the TGI [6] of the same compound?
Answer: Its TGI is 18.3 µM.

Question: What about the TGI [7] of the same compound?
Answer: Its TGI is 10.8 µM.

Question: And the TGI [8]?
Answer: Its TGI is 37.4 µM.

Question: What about the TGI [9] of the same compound?
Answer: Its TGI is 2.92 µM.

Question: And the TGI [10]?
Answer: The TGI was 25.3 µM.

Question: Which TGI [1] does the source give for `NS(=O)(=O)c1cc2c(cc1Cl)NC(CCC(=O)O)=NS2(=O)=O` here?
Answer: Its TGI is > 100 µM.

Question: What about the TGI [2] of the same compound?
Answer: Its TGI is > 100 µM.

Question: What about the TGI [3] of the same compound?
Answer: The TGI was > 100 µM.

Question: And the TGI [4]?
Answer: The TGI was > 100 µM.

Question: What about the TGI [5] of the same compound?
Answer: The TGI was > 100 µM.

Question: What about the TGI [6] of the same compound?
Answer: The TGI was > 100 µM.

Question: And the TGI [7]?
Answer: Its TGI is > 100 µM.

Question: And the TGI [8]?
Answer: Its TGI is > 100 µM.

Question: And the TGI [9]?
Answer: Its TGI is > 100 µM.

Question: And the TGI [10]?
Answer: The TGI was > 100 µM.

Question: Which results are given for `COc1ccc(NC(=O)CC(=O)N2N=C(N3c4ccccc4Sc4ccccc43)CC2c2ccccc2)cc1` (stereo not given)?
Answer: TGI [1]: > 100 µM; TGI [2]: > 100 µM; TGI [3]: > 100 µM; TGI [4]: > 100 µM; TGI [5]: > 100 µM; TGI [6]: > 100 µM; TGI [7]: > 100 µM; TGI [8]: > 100 µM; TGI [9]: > 100 µM; TGI [10]: > 100 µM

Question: Which TGI [1] does the source give for `Cc1ccc(-c2[nH]c(=O)n(C3OC(CO)C(O)C(O)C3O)c(=O)c2C#N)cc1` (stereo not given) here?
Answer: Its TGI is > 100 µM.

Question: What about the TGI [2] of the same compound?
Answer: Its TGI is > 100 µM.

Question: And the TGI [3]?
Answer: Its TGI is > 100 µM.

Question: What about the TGI [4] of the same compound?
Answer: Its TGI is > 100 µM.

Question: What about the TGI [5] of the same compound?
Answer: The TGI was > 100 µM.

Question: What about the TGI [6] of the same compound?
Answer: The TGI was > 100 µM.

Question: And the TGI [7]?
Answer: Its TGI is > 100 µM.

Question: And the TGI [8]?
Answer: The TGI was > 100 µM.

Question: And the TGI [9]?
Answer: The TGI was > 100 µM.

Question: And the TGI [10]?
Answer: The TGI was > 100 µM.

Question: With `CS(=O)c1ncc2c(n1)-c1ccccc1OC2` (stereo not given) as the compound, how does the TGI [1] read?
Answer: The TGI was > 100 µM.

Question: What about the TGI [2] of the same compound?
Answer: The TGI was > 100 µM.

Question: And the TGI [3]?
Answer: Its TGI is > 100 µM.

Question: And the TGI [4]?
Answer: The TGI was > 100 µM.

Question: And the TGI [5]?
Answer: Its TGI is > 100 µM.

Question: What about the TGI [6] of the same compound?
Answer: The TGI was > 100 µM.

Question: What about the TGI [7] of the same compound?
Answer: Its TGI is > 100 µM.

Question: What about the TGI [8] of the same compound?
Answer: Its TGI is > 100 µM.

Question: What about the TGI [9] of the same compound?
Answer: The TGI was > 100 µM.

Question: And the TGI [10]?
Answer: The TGI was > 100 µM.
